Assays:
Test in all cases: relative viability (nuclei count vs DMSO), 5 days (fraction); higher = more cells survive
Linsitinib + Vorinostat = compound: C[C@]1(O)C[C@@H](c2nc(-c3ccc4ccc(-c5ccccc5)nc4c3)c3c(N)nccn32)C1 [Linsitinib] + O=C(CCCCCCC(=O)Nc1ccccc1)NO [Vorinostat] (partner 1 µM)
Procedure, shortened: (§1)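 After 5 days of treatment, lung cancer cells in 1536-well plates were fixed and stained in a single step (final 0.05% Triton X-100, 1% formaldehyde, 1 ug/ml Hoechst) and their nuclei counted on 4× images. Treatment had been applied by pin tool the day after seeding as one drug alone or as a fixed anchor-drug dose with five library-drug doses (not always all listed) in √10 steps. Relative viability is the nuclei count of treated wells divided by that of vehicle wells, and values are medians of duplicate plates.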

Linsitinib + Pemetrexed = compound: C[C@]1(O)C[C@@H](c2nc(-c3ccc4ccc(-c5ccccc5)nc4c3)c3c(N)nccn32)C1 [Linsitinib] + Nc1nc2[nH]cc(CCc3ccc(C(=O)N[C@@H](CCC(=O)O)C(=O)O)cc3)c2c(=O)[nH]1 [Pemetrexed] (partner 0.2 µM)
Procedure, shortened: as §1

Linsitinib + Lapatinib = compound: C[C@]1(O)C[C@@H](c2nc(-c3ccc4ccc(-c5ccccc5)nc4c3)c3c(N)nccn32)C1 [Linsitinib] + CS(=O)(=O)CCNCc1ccc(-c2ccc3ncnc(Nc4ccc(OCc5cccc(F)c5)c(Cl)c4)c3c2)o1 [Lapatinib] (partner 2 µM)
Procedure, shortened: as §1

Ispinesib + Luminespib = compound: Cc1ccc(C(=O)N(CCCN)[C@@H](c2nc3cc(Cl)ccc3c(=O)n2Cc2ccccc2)C(C)C)cc1 [Ispinesib] + CCNC(=O)c1noc(-c2cc(C(C)C)c(O)cc2O)c1-c1ccc(CN2CCOCC2)cc1 [Luminespib] (partner 0.01 µM)
Procedure, shortened: as §1

Cell Line	relative viability (Linsitinib + Vorinostat; first compound 0.01 µM)	relative viability (Linsitinib + Vorinostat; first compound 0.03162 µM)	relative viability (Linsitinib + Vorinostat; first compound 0.1 µM)	relative viability (Linsitinib + Vorinostat; first compound 0.3162 µM)	relative viability (Linsitinib + Vorinostat; first compound 1 µM)	relative viability (Linsitinib + Pemetrexed; first compound 0.01 µM)	relative viability (Linsitinib + Pemetrexed; first compound 0.03162 µM)	relative viability (Linsitinib + Pemetrexed; first compound 0.1 µM)	relative viability (Linsitinib + Pemetrexed; first compound 0.3162 µM)	relative viability (Linsitinib + Pemetrexed; first compound 1 µM)	relative viability (Linsitinib + Lapatinib; first compound 0.01 µM)	relative viability (Linsitinib + Lapatinib; first compound 0.03162 µM)	relative viability (Linsitinib + Lapatinib; first compound 0.1 µM)	relative viability (Linsitinib + Lapatinib; first compound 0.3162 µM)	relative viability (Linsitinib + Lapatinib; first compound 1 µM)	relative viability (Ispinesib + Luminespib; first compound 0.001 µM)	relative viability (Ispinesib + Luminespib; first compound 0.003162 µM)	relative viability (Ispinesib + Luminespib; first compound 0.01 µM)	relative viability (Ispinesib + Luminespib; first compound 0.03162 µM)	relative viability (Ispinesib + Luminespib; first compound 0.1 µM)
PC-14	0.668	0.566	0.808	0.517	0.52	0.137	0.0865	0.16	0.121	0.148	0.281	0.301	0.303	0.31	0.257	0.168	0.13	0.131	0.131	0.125
NCI-H1915	0.547	0.51	0.528	0.46	0.394	0.558	0.291	0.495	0.588	0.486	0.984	1.01	0.981	0.608	0.723	0.979	0.987	1.13	0.706	0.385
NCI-H647	0.57	0.583	0.458	0.368	0.646	0.228	0.115	0.185	0.172	0.197	1.12	1.11	1.09	–	0.854	0.172	0.28	0.233	0.229	0.151
NCI-H322M	0.912	0.927	0.953	1	0.623	0.612	0.605	0.582	0.59	0.523	0.63	0.612	0.567	0.933	0.507	0.992	0.888	0.729	0.612	0.58
NCI-H2170	0.771	0.771	0.753	–	0.696	0.255	0.241	0.251	–	0.276	0.266	0.256	0.276	0.256	0.228	0.74	0.53	0.964	0.351	0.448
BEN	0.513	0.573	0.534	0.434	0.474	0.599	0.723	0.704	0.562	0.63	0.84	0.685	0.563	–	0.58	0.617	0.576	0.237	0.247	0.234
NCI-H2009	0.725	0.699	0.796	0.58	0.669	1.15	0.944	1.09	0.946	0.942	0.945	0.878	0.997	0.148	0.963	1.12	1.13	1.19	0.769	0.251
LC-2-ad	0.719	0.693	0.692	0.487	0.443	0.272	0.264	0.256	0.266	0.259	0.934	0.691	0.941	0.332	0.766	1.08	1.3	1.05	0.915	0.396

Source: the supplement of paper PMC10307832
